ChEMBL document CHEMBL4406858, “Discovery of 2-aminopyridines bearing a pyridone moiety as potent ALK inhibitors to overcome the crizotinib-resistant mutants” (Eur J Med Chem, 2019)
pIC50: −log10 of the molar value.

Legend:
[1] = system: KARPAS-299; assay: cells; conditions: Homo sapiens, KARPAS-299, 72 h
Description: Antiproliferative activity against human KARPAS299 cells expressing NMP-ALK assessed as reduction in cell viability incubated for 72 hrs by MTT assay

[2] = system: SH-SY5Y; assay: cells; conditions: Homo sapiens, 72 h
Description: Antiproliferative activity against human SH-SY5Y cells expressing ALK F1174L mutant assessed as reduction in cell viability incubated for 72 hrs by MTT assay

[3] = system: NCI-H2228; assay: cells; conditions: Homo sapiens, NCI-H2228, 72 h
Description: Antiproliferative activity against human NCI-H2228 cells expressing EML4-ALK assessed as reduction in cell viability incubated for 72 hrs by MTT assay

[4] = cells; conditions: Homo sapiens, SKNBE2, 72 h
Description: Antiproliferative activity against human SK-N-BE(2) cells expressing wild type ALK assessed as reduction in cell viability incubated for 72 hrs by MTT assay

[5] = system: KARPAS-299; assay: Cell cycle arrest in human KARPAS299 cells expressing […] assessed as accumulation of cells at G2 phase at 1 uM incubated for 48 hrs by propidium iodide staining based flow cytometry (reference value: 3.68%); assay type: functional
[6] = target: Proto-oncogene tyrosine-protein kinase ROS (Homo sapiens, UniProt P08922); assay: Inhibition of recombinant human N-terminal GST-tagged ROS (1883 to 2347 residues) expressed in baculovirus expression system using IRS1 as substrate incubated with enzyme and substrate for 5 mins followed by ATP addition followed by further incubation for 30 mins by HTRF assay
Proto-oncogene tyrosine-protein kinase ROS, sequence (P08922 whole entry, the tested form may be a part): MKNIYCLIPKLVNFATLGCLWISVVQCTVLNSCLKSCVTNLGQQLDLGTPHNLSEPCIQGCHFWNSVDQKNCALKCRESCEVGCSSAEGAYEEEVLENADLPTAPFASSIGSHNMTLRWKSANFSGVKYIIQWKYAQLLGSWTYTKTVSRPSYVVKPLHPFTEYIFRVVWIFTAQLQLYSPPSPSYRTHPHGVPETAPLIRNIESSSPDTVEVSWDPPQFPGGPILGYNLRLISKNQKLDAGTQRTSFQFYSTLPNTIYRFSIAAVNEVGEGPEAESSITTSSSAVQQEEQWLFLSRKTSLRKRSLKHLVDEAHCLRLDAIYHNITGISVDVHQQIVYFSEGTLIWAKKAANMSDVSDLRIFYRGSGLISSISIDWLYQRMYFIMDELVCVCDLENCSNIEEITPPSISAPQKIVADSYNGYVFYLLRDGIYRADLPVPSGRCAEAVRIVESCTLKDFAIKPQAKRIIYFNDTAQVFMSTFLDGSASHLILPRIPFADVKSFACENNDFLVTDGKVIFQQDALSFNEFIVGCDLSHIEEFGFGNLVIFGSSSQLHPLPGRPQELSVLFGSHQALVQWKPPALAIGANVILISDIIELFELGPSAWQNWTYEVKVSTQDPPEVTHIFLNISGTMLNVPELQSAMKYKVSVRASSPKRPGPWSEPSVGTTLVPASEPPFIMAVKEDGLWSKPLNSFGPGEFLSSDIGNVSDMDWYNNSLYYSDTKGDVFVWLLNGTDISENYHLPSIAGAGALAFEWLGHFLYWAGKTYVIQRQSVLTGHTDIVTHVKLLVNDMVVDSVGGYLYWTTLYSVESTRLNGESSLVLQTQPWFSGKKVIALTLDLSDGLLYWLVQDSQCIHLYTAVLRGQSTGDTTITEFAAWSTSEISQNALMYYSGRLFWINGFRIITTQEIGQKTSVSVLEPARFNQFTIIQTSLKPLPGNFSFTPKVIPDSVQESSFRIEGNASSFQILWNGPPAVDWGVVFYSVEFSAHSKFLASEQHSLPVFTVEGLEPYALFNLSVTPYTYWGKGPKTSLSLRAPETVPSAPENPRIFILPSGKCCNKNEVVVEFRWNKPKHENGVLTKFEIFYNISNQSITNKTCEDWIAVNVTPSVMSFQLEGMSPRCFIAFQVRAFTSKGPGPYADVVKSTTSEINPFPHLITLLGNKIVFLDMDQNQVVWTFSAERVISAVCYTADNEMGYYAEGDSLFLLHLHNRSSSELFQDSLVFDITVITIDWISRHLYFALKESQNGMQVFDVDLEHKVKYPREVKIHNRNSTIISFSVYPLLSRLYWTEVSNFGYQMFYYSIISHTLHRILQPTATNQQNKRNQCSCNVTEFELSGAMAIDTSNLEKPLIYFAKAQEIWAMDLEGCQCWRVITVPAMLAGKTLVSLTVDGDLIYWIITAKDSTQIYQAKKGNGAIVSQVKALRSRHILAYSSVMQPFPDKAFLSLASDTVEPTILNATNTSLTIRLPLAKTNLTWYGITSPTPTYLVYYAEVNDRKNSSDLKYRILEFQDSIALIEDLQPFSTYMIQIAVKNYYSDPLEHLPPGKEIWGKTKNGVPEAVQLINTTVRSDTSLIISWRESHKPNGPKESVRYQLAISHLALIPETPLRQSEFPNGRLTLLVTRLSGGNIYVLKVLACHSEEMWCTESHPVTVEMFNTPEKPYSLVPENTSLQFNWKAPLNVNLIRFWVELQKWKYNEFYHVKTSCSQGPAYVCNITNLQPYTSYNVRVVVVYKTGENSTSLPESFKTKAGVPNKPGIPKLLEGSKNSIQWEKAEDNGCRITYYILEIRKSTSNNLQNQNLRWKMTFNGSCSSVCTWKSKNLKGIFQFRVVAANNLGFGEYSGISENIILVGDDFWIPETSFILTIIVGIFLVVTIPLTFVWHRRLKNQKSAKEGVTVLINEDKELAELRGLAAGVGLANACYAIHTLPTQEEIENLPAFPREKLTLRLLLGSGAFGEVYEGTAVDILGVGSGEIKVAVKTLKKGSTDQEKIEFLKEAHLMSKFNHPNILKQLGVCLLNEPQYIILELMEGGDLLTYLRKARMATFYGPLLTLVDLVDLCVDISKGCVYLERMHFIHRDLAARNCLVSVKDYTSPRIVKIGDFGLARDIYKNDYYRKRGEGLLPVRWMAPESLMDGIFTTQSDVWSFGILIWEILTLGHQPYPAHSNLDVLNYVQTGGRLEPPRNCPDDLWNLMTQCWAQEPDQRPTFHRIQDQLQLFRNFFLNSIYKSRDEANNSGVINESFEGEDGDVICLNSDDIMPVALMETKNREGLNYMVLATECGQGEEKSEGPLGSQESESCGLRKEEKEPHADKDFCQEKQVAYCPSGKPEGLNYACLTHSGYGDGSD

[7] = system: KARPAS-299; assay: Cell cycle arrest in human KARPAS299 cells expressing […] assessed as accumulation of cells at S phase at 1 uM incubated for 48 hrs by propidium iodide staining based flow cytometry (reference value: 28.83%); assay type: functional
[8] = system: KARPAS-299; assay: Cell cycle arrest in human KARPAS299 cells expressing […] assessed as accumulation of cells at G1 phase at 1 uM incubated for 48 hrs by propidium iodide staining based flow cytometry (reference value: 58.94%); assay type: functional

Row | SMILES | pIC50 [1] | also measured
1 | CC(NC(=O)c1cc(-c2cc[nH]c(=O)c2)cnc1N)c1c(Cl)ccc(F)c1Cl (stereo not given) | < 4.70 | –
2 | C[C@@H](Sc1cc(-c2cc[nH]c(=O)c2)cnc1N)c1c(Cl)ccc(F)c1Cl | 6.14 | –
3 | CC(Oc1cc(-c2cc[nH]c(=O)c2)cnc1N)c1ccc(Cl)cc1 (stereo not given) | 4.75 | –
4 | C[C@@H](Sc1cc(-c2ccn(CCN(C)C)c(=O)c2)cnc1N)c1c(Cl)ccc(F)c1Cl | 6.55 | –
5 | CC(Oc1cc(-c2ccn(C)c(=O)c2)cnc1N)c1cccnc1 (stereo not given) | 4.95 | –
6 | CC(Oc1cc(-c2ccn(C)c(=O)c2)cnc1N)c1ccccn1 (stereo not given) | 4.92 | –
7 | Cc1ccc(C(C)Oc2cc(-c3cc[nH]c(=O)c3)cnc2N)cc1 (stereo not given) | 4.99 | –
8 | C[C@@H](Sc1cc(-c2ccn(Cc3ccccc3)c(=O)c2)cnc1N)c1c(Cl)ccc(F)c1Cl | 6.10 | –
9 | CC(Oc1cc(-c2ccn(C)c(=O)c2)cnc1N)c1ccc(Cl)cc1 (stereo not given) | 4.68 | –
10 | CC(Oc1cc(-c2ccn(Cc3ccccc3)c(=O)c2)cnc1N)c1c(Cl)ccc(F)c1Cl (racemic) | 6.49 | –
11 | CC(NC(=O)c1cc(-c2ccn(C)c(=O)c2)cnc1N)c1c(Cl)ccc(F)c1Cl (stereo not given) | < 4.70 | –
12 | CC(Oc1cc(-c2cc[nH]c(=O)c2)cnc1N)c1ccccc1 (stereo not given) | 5.36 | –
13 | CC(Oc1cc(-c2ccn(C)c(=O)c2)cnc1N)c1ccccc1 (stereo not given) | 5.54 | –
14 | Cc1ccc(C(C)Oc2cc(-c3ccn(C)c(=O)c3)cnc2N)cc1 (stereo not given) | 5.11 | –
15 | C[C@@H](Sc1cc(-c2ccn(C)c(=O)c2)cnc1N)c1c(Cl)ccc(F)c1Cl | 6.40 | –
16 | CCOC(=O)Cn1ccc(-c2cnc(N)c(O[C@H](C)c3c(Cl)ccc(F)c3Cl)c2)cc1=O | 6.68 | pIC50 [2]: 5.73; pIC50 [3]: 5.48; pIC50 [4]: 5.91
17 | CC(Oc1cc(-c2ccn(C)c(=O)c2)cnc1N)c1ccncc1 (stereo not given) | < 4.70 | –

These reach a higher pIC50 [1]. Values come first.

Row | pIC50 [1] | SMILES | also measured
18 | 6.70 | CC(Oc1cc(-c2ccn(C)c(=O)c2)cnc1N)c1c(Cl)ccc(F)c1Cl (racemic) | –
19 | 6.89 | C[C@@H](Oc1cc(-c2ccn(Cc3ccccc3)c(=O)c2)cnc1N)c1c(Cl)ccc(F)c1Cl | pIC50 [2]: 5.87; pIC50 [3]: 5.89; pIC50 [4]: 5.99
20 | 6.92 | CC(Oc1cc(-c2cc[nH]c(=O)c2)cnc1N)c1c(Cl)ccc(F)c1Cl (racemic) | –
21 | 6.96 | CCCn1ccc(-c2cnc(N)c(O[C@H](C)c3c(Cl)ccc(F)c3Cl)c2)cc1=O | pIC50 [2]: 5.67; pIC50 [3]: 5.91; pIC50 [4]: 5.84
22 | 7.22 | CCn1ccc(-c2cnc(N)c(O[C@H](C)c3c(Cl)ccc(F)c3Cl)c2)cc1=O | pIC50 [2]: 5.60; pIC50 [3]: 5.92; pIC50 [4]: 5.84
23 | 7.30 | C[C@@H](Oc1cc(-c2cc[nH]c(=O)c2)cnc1N)c1c(Cl)ccc(F)c1Cl | pIC50 [2]: 5.68; pIC50 [3]: 6.19; pIC50 [4]: 6.12
24 | 7.40 | C[C@@H](Oc1cc(-c2ccn(CCN(C)C)c(=O)c2)cnc1N)c1c(Cl)ccc(F)c1Cl | Activity [5]: 5.43%; pIC50 [2]: 5.78; pIC50 [6]: 8.64; Activity [7]: 8%; Activity [8]: 81.46%; pIC50 [3]: 6.36; pIC50 [4]: 6.15
25 | 7.40 | C[C@@H](Oc1cc(-c2ccn(C)c(=O)c2)cnc1N)c1c(Cl)ccc(F)c1Cl | pIC50 [2]: 5.73; pIC50 [3]: 6.16; pIC50 [4]: 6.08
